Columns and labels:
involucrin mRNA [1] = experiment: Involucrin mRNA in keratinocytes by Northern Blot; type: cell-based, Human; conditions: for involucrin (INV) mRNA level compared to the vehicle alone: low calcium (0.03 mM), 24 hours, 10 μM
Method: (§1) Human keratinocyte cells were incubated in culture containing calcium at a concentration of 0.03 mM Ca^++ (a level that is too low to induce differentiation). Also included in the culture medium were clofibrate at 400 μM or ETYA at 10 μM and 20 μM, while separate cell cultures were maintained as controls with neither clofibrate nor ETYA. The production of mRNA for both involucrin and transglutaminase was measured at intervals over a 48-hour time period (0, 6, 12, 24, and 48 hours) by Northern Blot analysis. In each case, the lighter bars represent the control cells and the darker bars the cells incubated in the clofibrate-containing medium. The degree of mRNA generated is expressed as a percent of the control at zero hours.
(§2) Human epidermis was isolated from newborn foreskins and keratinocytes were plated in serum-free keratinocyte growth medium (“KGM”; Clonetics, San Diego, Calif. USA), using conventional techniques. Cells were treated with either the test compounds in vehicle or vehicle alone (<0.1% ethanol) for 24 or 48 hours. The test compounds were obtained from Sigma Chemical Co. (St. Louis. Mo. USA) and were stored as 15 mM stock solutions at −20° C. Mevalonate was solubilized in sterile water.
(§3) Total RNA was isolated by using TRIZOL (Sigma Chemical Co.), following the manufacturer's protocol. Ethanol-precipitate RNA pellets were suspended in sterile, diethylpyrocarbonate (DEPC)-treated water, and RNA was quantified by absorbance at 260 nm using the 260/280 nm ratio as an index of purity. RNA (15 μg per sample) was size fractionated through a 1% agarose gel containing 2.2 M formaldehyde. RNA integrity was visualized following acridine orange staining of the gel following electrophoresis. The RNA was transfered to a nylon membrane that was subsequently baked at 80° C. for 2 hours. Blots were hybridized with the appropriate ^32p-labeled probe overnight at 65° C. Washes were then performed in a solution containing 0.1% SSC and 0.1% sodium dedecyl sulfate (SDS) for 20 minutes at room temperature, followed by a 20-minute wash at 65° C. Autoradiography was performed at −70° C. Blots were probed with β-actin to confirm equal loading. Appropriate bands were quantified by densitometry.
(§4) Northern blot analyses were performed on keratinocytes maintained in low calcium (0.03 mM) and incubated for 24 hours in the presence of vehicle alone (<0.1% ethanol) or vehicle containing 25-hydroxycholesterol (10 μM), 22(R)-hydroxycholesterol (10 μM) cholesterol (10 μM), or mevalonate (500 μM) (individually). The mRNA levels of involucrin (“INV”) and transglutaminase (“TG'ase”) are shown in the bar graph of FIG. 14a, the INV indicated by clear bars and the TG'ase by shaded bars, both with error limits shown.

transglutaminase protein = experiment: Transglutaminase protein level in keratinocytes by Western blotting; type: cell-based, Human; conditions: for TG'ase protein level relative to the control: low calcium (0.03 mM), 24 hours
Method: Protein concentration was assessed by protein electrophoresis and Western blotting. Cells were lysed is 2% SDS and the lysate sonicated. Protein determinations were made by use of a Bicinchoninic add protein assay (Pierce Chemical Company, Rockford, Ill. USA). Following protein determination, equal amounts at protein (50 μg) were separated by electrophoresis an 7.5% polyacrylamide gels and electroblotted onto polyvinylidene […] membranes (0.2-μ, obtained from Bio-Rad Laboratories Hercules, Calif., USA). Involucrin protein was detected by incubation over-night at 4° C. C. with a polyclonal rabbit anti-human involucrin antibody (1:1000 dilution). The involucrin-specific bands on the autoradiograms were quantitated by densitometry by densitometry. Transglutaminase protein expression was measured in a similar […], using stacking, sample and running buffers containing 4 M urea, and the gels following electrophoresis were washed in 4 M urea, 25 mM TRIS-HCl, pH 7.4, 7.5 mM NaCl, 0.1 mM dithiothreitol (DTT), and 2 mM ethylenediamine tetraacetic acid for 90 minutes prior to electoblotting, allowing the transglutaminase to be detected by antibody. Specific bands on the autoradiograms were quantified by densitometry. Levels of involucrin and transglutaminase protein were measured in keratinocytes incubated in low calcium (0.03 mM) and treated with the test compounds for 24 hours. The are shown in the bar graph of FIG. 17a, where the test compounds are compared with the vehicle alone (control) and cholesterol, using the same bar indications as in FIGS 14 through 16. […] Cholesterol had no effect.

transglutaminase mRNA [2] = experiment: Transglutaminase mRNA in keratinocytes by Northern Blot; type: cell-based, Human; conditions: for transglutaminase (TG'ase) mRNA level compared to the vehicle alone: low calcium (0.03 mM), 24 hours, 10 μM
Method: as §1, §2, §3, §4

involucrin protein = experiment: Involucrin protein level in keratinocytes by Western Blot; type: cell-based, Human; conditions: for increase in INV protein: high calcium (1.2 mM), 15 μM; for INV protein level relative to the control: low calcium (0.03 mM), 24 hours
Method: Measurements of the level of the involucrin protein itself were performed in the culture medium by Western Blot. Various incubations were performed, in media containing clofibrate at concentrations ranging from 0 (vehicle only) to 400 μM and calcium ion at both 0.03 mM and 1.2 mM. The results are shown in FIG. 9a for tests with calcium ion at 0.03 mM, and in FIG. 9b for tests with calcium ion at 1.2 mM. In these figures, the protein contents are expressed as percents of the respective measurements taken from media incubated for the same period of time but in the absence of clofibrate.
The procedures of Example 8 were followed, and measurements were taken on the involucrin protein levels from cells incubated at various concentrations of farnesol and juvenile hormone III ranging from 0 (vehicle only) to 15 μM, in media containing 0.03 mM and 1.2 mM calcium ion, for 24 hours. The results are shown in FIG. 10 for farnesol and FIG. 11 for juvenile hormone III, in 0.03 mM Ca^++.
Protein concentration was assessed by protein electrophoresis and Western blotting. Cells were lysed is 2% SDS and the lysate sonicated. Protein determinations were made by use of a Bicinchoninic add protein assay (Pierce Chemical Company, Rockford, Ill. USA). Following protein determination, equal amounts at protein (50 μg) were separated by electrophoresis an 7.5% polyacrylamide gels and electroblotted onto polyvinylidene […] membranes (0.2-μ, obtained from Bio-Rad Laboratories Hercules, Calif., USA). Involucrin protein was detected by incubation over-night at 4° C. C. with a polyclonal rabbit anti-human involucrin antibody (1:1000 dilution). The involucrin-specific bands on the autoradiograms were quantitated by densitometry by densitometry. Transglutaminase protein expression was measured in a similar mmaner, using stacking, sample and running buffers containing 4 M urea, and the gels following electrophoresis were washed in 4 M urea, 25 mM TRIS-HCl, pH 7.4, 7.5 mM NaCl, 0.1 mM dithiothreitol (DTT), and 2 mM ethylenediamine tetraacetic acid for 90 minutes prior to electoblotting, allowing the transglutaminase to be detected by antibody. Specific bands on the autoradiograms were quantified by densitometry.

[3] = system: Normal human keratinocytes; experiment: Cornified envelope formation (35S incorporation) in keratinocytes; type: cell-based; conditions: 10 μM, 48 hours
keratinocytes = experiment: Rate of DNA synthesis (3H-thymidine incorporation) in keratinocytes; type: cell-based, Human; conditions: 10 μM, 24 hours, low calcium (0.03 mM); 16-hour 3H-thymidine period
Method: The rate of DNA synthesis was determined by measuring the incorporation of ^3H-thymidine into cellular DNA after 16 hours of incubation with 2 μCi^3H-thymidine per mL of media (110 Ci/mmol methyl-1′,2′-^3H-thymidine (Amersham Laboratories, Arlington Heights, Ill. USA). The cells were then solubilized in 1N NaOH, and the radioactivity in the washed TCA precipitate was quantitated by scintillation spectroscopy.
Using the procedures set forth in the Materials and Methods section above, 25-hydroxycholesterol (10 μM) and 22(R)-hydroxycholesterol (10 μM, were compared with cholesterol (10 μM) and the vehicle alone control), with treatment for 24 hours under low calcium (0.03 mM) condition. The results are shown in the bar graph of FIG. 19.

transglutaminase mRNA [4] = experiment: Transglutaminase mRNA in keratinocytes by Northern Blot; type: cell-based, Human; conditions: calcium 1.2 mM, 10 μM, 24 hours
involucrin mRNA [5] = experiment: Involucrin mRNA in keratinocytes by Northern Blot; type: cell-based, Human; conditions: calcium 1.2 mM, 10 μM, 24 hours
[6] = doses 0-15.0 μM, low calcium, FIG. 15

| Structure (SMILES) | EC50 (involucrin mRNA [1]; Homo sapiens, Keratinocyte, doses 0-15.0 μM, low calcium, FIG. 15, read-out: dosage of half-maximal effects on INV mRNA) [µM] | dosage of maximal effects on INV mRNA (involucrin mRNA [1]; [6]) [µM] | involucrin (INV) mRNA level compared to the vehicle alone (involucrin mRNA [1]) | increase in TG'ase protein level (transglutaminase protein; high calcium (1.2 mM), 5 μM) [fold] | TG'ase protein level relative to the control (transglutaminase protein) | EC50 (transglutaminase mRNA [2]; Homo sapiens, Keratinocyte, doses 0-15.0 μM, low calcium, FIG. 15, read-out: dosage of half-maximal effects on TG'ase mRNA) [µM] | dosage of maximal effects on TG'ase mRNA (transglutaminase mRNA [2]; [6]) [µM] | transglutaminase (TG'ase) mRNA level compared to the vehicle alone (transglutaminase mRNA [2]) | increase in INV protein (involucrin protein) | INV protein level relative to the control (involucrin protein) | increase in cornified envelope (CE) formation ([3]; high calcium (1.2 mM)) | increase in cornified envelope (CE) formation ([3]; low calcium (0.03 mM)) | rate of DNA synthesis (keratinocytes) | TG'ase mRNA level, induction (transglutaminase mRNA [4]) | INV mRNA level, induction (involucrin mRNA [5]) |
| --- | --- | --- | --- | --- | --- | --- | --- | --- | --- | --- | --- | --- | --- | --- | --- |
| CC(C)CC[C@@H](O)[C@@H](C)[C@H]1CC[C@H]2[C@@H]3CC=C4C[C@@H](O)CC[C@]4(C)[C@H]3CC[C@]12C [22(R)-hydroxycholesterol] | ~5 | 10 to 15 | approximate twofold increase | 2.1 | approximately 2.8 fold | ~5 | 10 to 15 | approximate twofold increase | 2.8 fold | approximately 3.2 fold | 2.1 fold | 1.3 fold | 42 % of control | – | – |
| CC(C)CCC[C@@H](C)[C@H]1CC[C@H]2[C@@H]3CC=C4C[C@@H](O)CC[C@]4(C)[C@H]3CC[C@]12C [cholesterol] | – | – | neither cholesterol (“chol”) nor mevalonate (“mev”) had any effect | – | had no effect | – | – | neither cholesterol (“chol”) nor mevalonate (“mev”) had any effect | essentially no increase | had no effect | no increase | no increase | 117 % of control | no effect | no effect |

— USRE37770E1, “Treatment of skin conditions by use of PPARα activators” (The Regents of the University of California, priority 1997, dated 2002)
